Assay results taken from ChEMBL document CHEMBL1201862, “PubChem BioAssay data set” (2004).
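Tested at 5 concentrations; 48 h exposure; 96-well plates; endpoints linearly interpolated, else capped at highest concentration. GI50 = concentration required for 50% inhibition of growth.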 Activity calls are given as the source filed them. Cut-off read from the data, not from the text of the source: active = GI50 up to about 1.1 µM and inactive = higher.

Legend:
Test in all cases: DTP human tumour cell line panel, 48 h
UACC-257 = tested on: UACC-257
OVCAR-8 = tested on: OVCAR-8
T47D = tested on: T47D
SK-MEL-28 = tested on: SK-MEL-28
SNB-75 = tested on: SNB-75
MDA-N = tested on: MDA-N
EKVX = tested on: EKVX
UACC-62 = tested on: UACC-62
U-251 = tested on: U-251
OVCAR-5 = tested on: OVCAR-5
HCT-15 = tested on: HCT-15
IGROV-1 = tested on: IGROV-1
MOLT-4 = tested on: MOLT-4
CAKI-1 = tested on: CAKI-1
HL-60 = tested on: HL-60
DU-145 = tested on: DU-145
MDA-MB-435 = tested on: MDA-MB-435
TK-10 = tested on: TK-10
SF-268 = tested on: SF-268
MCF7 = tested on: MCF7

Compound	GI50 (UACC-257)	GI50 (OVCAR-8)	GI50 (T47D)	GI50 (SK-MEL-28)	GI50 (SNB-75)	GI50 (MDA-N)	GI50 (EKVX)	GI50 (UACC-62)	GI50 (U-251)	GI50 (OVCAR-5)	GI50 (HCT-15)	GI50 (IGROV-1)	GI50 (MOLT-4)	GI50 (CAKI-1)	GI50 (HL-60)	GI50 (DU-145)	GI50 (MDA-MB-435)	GI50 (TK-10)	GI50 (SF-268)	GI50 (MCF7)
Oc1ccc2ccccc2c1/N=N/c1ccc(Cl)cc1	> 100 µM (inactive)	> 100 µM (inactive)	> 100 µM (inactive)	> 100 µM (inactive)	> 100 µM (inactive)	> 100 µM (inactive)	> 100 µM (inactive)	> 100 µM (inactive)	> 100 µM (inactive)	> 100 µM (inactive)	> 100 µM	> 100 µM (inactive)	> 100 µM (inactive)	> 100 µM (inactive)	> 100 µM (inactive)	> 100 µM (inactive)	> 100 µM (inactive)	> 100 µM (inactive)	> 100 µM (inactive)	–
N#CC(=C1CCCCC1)c1nc2ccccc2o1	> 100 µM (inactive)	47.4 µM (inactive)	19.4 µM (inactive)	> 100 µM (inactive)	–	74.5 µM (inactive)	34.5 µM (inactive)	68.9 µM (inactive)	57.9 µM (inactive)	> 100 µM (inactive)	49.4 µM	83 µM (inactive)	> 100 µM (inactive)	64.1 µM (inactive)	35.2 µM (inactive)	> 100 µM (inactive)	> 100 µM (inactive)	> 100 µM (inactive)	55.2 µM (inactive)	53.1 µM (inactive)
COc1cc(/C=C2/C[C@H]3[C@@H]4CC=C5C[C@@H](O)CC[C@]5(C)[C@H]4CC[C@]3(C)NC2=O)cc(OC)c1OC	27.5 µM (inactive)	18.9 µM (inactive)	24.2 µM (inactive)	29.2 µM (inactive)	–	23 µM (inactive)	15.1 µM (inactive)	16.3 µM (inactive)	22.5 µM (inactive)	29.6 µM (inactive)	16.3 µM	11.8 µM (inactive)	21.6 µM (inactive)	11.9 µM (inactive)	0.405 µM (active)	2.28 µM (inactive)	20.7 µM (inactive)	23.6 µM (inactive)	9.12 µM (inactive)	11.8 µM (inactive)
O=C1/C(=C/c2ccc3c(c2)CCC3)Cc2cc3c(cc21)CCC3	> 100 µM (inactive)	> 100 µM (inactive)	3.53 µM (inactive)	> 100 µM (inactive)	26.2 µM (inactive)	> 100 µM (inactive)	> 100 µM (inactive)	> 100 µM (inactive)	> 100 µM (inactive)	> 100 µM (inactive)	> 100 µM	> 100 µM (inactive)	> 100 µM (inactive)	–	> 100 µM (inactive)	> 100 µM (inactive)	> 100 µM (inactive)	> 100 µM (inactive)	> 100 µM (inactive)	> 100 µM (inactive)
O=C1N(Cc2ccccc2)C2CSCC2N1Cc1ccccc1 (centres undefined)	24.8 µM (inactive)	33.3 µM (inactive)	27.2 µM (inactive)	37.7 µM (inactive)	41.9 µM (inactive)	30.2 µM (inactive)	21.1 µM (inactive)	27.4 µM (inactive)	35.3 µM (inactive)	15.9 µM (inactive)	–	24.8 µM (inactive)	37.5 µM (inactive)	30.8 µM (inactive)	–	50.9 µM (inactive)	20.2 µM (inactive)	29.6 µM (inactive)	31.1 µM (inactive)	31.4 µM (inactive)
CSc1nc2c3ccccc3ccn2c1C(=O)N/N=C/c1ccccc1	> 100 µM (inactive)	18.5 µM (inactive)	27.9 µM (inactive)	> 100 µM (inactive)	> 42.7 µM (inactive)	97.3 µM (inactive)	> 100 µM (inactive)	> 100 µM (inactive)	15.8 µM (inactive)	> 75.5 µM (inactive)	> 100 µM	33.7 µM (inactive)	> 100 µM (inactive)	14.9 µM (inactive)	> 100 µM (inactive)	> 74.6 µM (inactive)	> 100 µM (inactive)	–	19.7 µM (inactive)	> 46.3 µM (inactive)
CC(NC(=O)OC(C)(C)C)C(=O)C(N)=O (centres undefined)	–	> 100 µM (inactive)	> 100 µM (inactive)	> 100 µM (inactive)	> 100 µM (inactive)	> 100 µM (inactive)	> 100 µM (inactive)	–	> 100 µM (inactive)	> 100 µM (inactive)	> 100 µM	–	> 100 µM (inactive)	–	> 100 µM (inactive)	> 100 µM (inactive)	> 100 µM (inactive)	> 100 µM (inactive)	> 100 µM (inactive)	> 100 µM (inactive)
